Reference: patent US10577363B2, “Substituted piperidine compounds” (EPIZYME, INC., priority 2014, dated 2020)

target: SMYD3 (Homo sapiens (Human), UniProt Q9H7B4); assay: SMYD3 biochemical assay (SPA, 3H-SAM methylation of MEKK2 protein substrate); conditions: read-out: SMYD3 Biochem IC50 (μM)*
Method in brief: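 Tritium incorporation into GST-MEKK2 is counted by scintillation proximity after citric acid bead capture. Native human SMYD3 is preincubated with test compound for 30 min at room temperature at pH 8.0 (Tris-Cl, TCEP, BSG, Tween 20) before 3H-SAM and substrate are added; cold SAM at 100 uM final stops turnover.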

`C[C@H]1C[C@@H](NC(=O)c2cc(C3CC3)on2)CCN1S(=O)(=O)c1cn(C)cn1` [compound 234, 5-cyclopropyl-N-((2S,4S)-2-methyl-1-((1-methyl-1H-imidazol-4-yl)sulfonyl)piperidin-4-yl)isoxazole-3-carboxamide] was tested. Which IC50 did it give?
Its IC50 is 1.24 µM.

`C[C@H]1C[C@@H](NC(=O)c2cc(C3CC3)on2)CCN1S(=O)(=O)CCC(F)(F)F` [compound 236, 5-cyclopropyl-N-((2S,4S)-2-methyl-1-((3,3,3-trifluoropropyl)sulfonyl)piperidin-4-yl)isoxazole-3-carboxamide] was tested. Which IC50 did it give?
Its IC50 is 1.04 µM.

How did the IC50 turn out when `CC(C)OCCS(=O)(=O)N1CC[C@H](NC(=O)c2cc(C3CC3)on2)C[C@@H]1C` [compound 237, 5-cyclopropyl-N-((2S,4S)-1-((2-isopropoxyethyl)sulfonyl)-2-methylpiperidin-4-yl)isoxazole-3-carboxamide] was run?
The IC50 was 3.46 µM.

Which IC50 does the source give for `CCCS(=O)(=O)N1CC[C@H](NC(=O)c2cc(C3CC3)on2)C[C@H]1C` [compound 238, 5-cyclopropyl-N-((2R,4S)-2-methyl-1-(propylsulfonyl)piperidin-4-yl)isoxazole-3-carboxamide] here?
Its IC50 is over 10 µM.

For `CC(C)CS(=O)(=O)N1CC[C@H](NC(=O)c2cc(C3CC3)on2)C[C@H]1C` [compound 239, 5-cyclopropyl-N-((2R,4S)-1-(isobutylsulfonyl)-2-methylpiperidin-4-yl)isoxazole-3-carboxamide], which IC50 is on record?
The IC50 was over 10 µM.

Which IC50 does the source give for `CCCCS(=O)(=O)N1CC[C@H](NC(=O)c2cc(C3CC3)on2)C[C@H]1C` [compound 240, N-((2R,4S)-1-(butylsulfonyl)-2-methylpiperidin-4-yl)-5-cyclopropylisoxazole-3-carboxamide] here?
The IC50 was over 10 µM.

`C[C@@H]1C[C@@H](NC(=O)c2cc(C3CC3)on2)CCN1S(=O)(=O)c1ccc(Cl)nc1` [compound 241, N-((2R,4S)-1-((6-chloropyridin-3-yl)sulfonyl)-2-methylpiperidin-4-yl)-5-cyclopropylisoxazole-3-carboxamide] was tested. Which IC50 did it give?
Its IC50 is over 10 µM.

With `C[C@@H]1C[C@@H](NC(=O)c2cc(C3CC3)on2)CCN1S(=O)(=O)N1CCCC1` [compound 242, 5-cyclopropyl-N-((2R,4S)-2-methyl-1-(pyrrolidin-1-ylsulfonyl)piperidin-4-yl)isoxazole-3-carboxamide] as the molecule, how does the IC50 read?
Its IC50 is over 10 µM.

`C[C@@H]1C[C@@H](NC(=O)c2cc(C3CC3)on2)CCN1S(=O)(=O)N1CCN(C)CC1` [compound 243, 5-cyclopropyl-N-((2R,4S)-2-methyl-1-((4-methylpiperazin-1-yl)sulfonyl)piperidin-4-yl)isoxazole-3-carboxamide] was tested. Which IC50 did it give?
Its IC50 is 1.76 µM.

How did the IC50 turn out when `CCOC(=O)CS(=O)(=O)N1CC[C@@H](NC(=O)c2cc(C3CC3)on2)C[C@@H]1C` [compound 245, ethyl 2-(((2S,4R)-4-(5-cyclopropylisoxazole-3-carboxamido)-2-methylpiperidin-1-yl)sulfonyl)acetate] was run?
Its IC50 is over 10 µM.

Which IC50 does the source give for `C[C@H]1C[C@H](NC(=O)c2cc(C3CC3)on2)CCN1S(=O)(=O)CC(F)(F)F` [compound 246, 5-cyclopropyl-N-((2S,4R)-2-methyl-1-((2,2,2-trifluoroethyl)sulfonyl)piperidin-4-yl)isoxazole-3-carboxamide] here?
Its IC50 is over 10 µM.

With `C[C@H]1C[C@H](NC(=O)c2cc(C3CC3)on2)CCN1S(=O)(=O)C1CC1` [compound 247, 5-cyclopropyl-N-((2S,4R)-1-(cyclopropylsulfonyl)-2-methylpiperidin-4-yl)isoxazole-3-carboxamide] as the molecule, how does the IC50 read?
Its IC50 is over 10 µM.

With `COCCS(=O)(=O)N1CC[C@@H](NC(=O)c2cc(C3CC3)on2)C[C@@H]1C` [compound 248, 5-cyclopropyl-N-((2S,4R)-1-((2-methoxyethyl)sulfonyl)-2-methylpiperidin-4-yl)isoxazole-3-carboxamide] as the molecule, how does the IC50 read?
Its IC50 is over 10 µM.

`CCCS(=O)(=O)N1CC[C@@H](NC(=O)c2cc(C3CC3)on2)C[C@H]1C` [compound 249, 5-cyclopropyl-N-((2R,4R)-2-methyl-1-(propylsulfonyl)piperidin-4-yl)isoxazole-3-carboxamide] was tested. Which IC50 did it give?
The IC50 was over 10 µM.

For `CC(C)CS(=O)(=O)N1CC[C@@H](NC(=O)c2cc(C3CC3)on2)C[C@H]1C` [compound 250, 5-cyclopropyl-N-((2R,4R)-1-(isobutylsulfonyl)-2-methylpiperidin-4-yl)isoxazole-3-carboxamide], which IC50 is on record?
Its IC50 is 9.45 µM.

For `CCCCS(=O)(=O)N1CC[C@@H](NC(=O)c2cc(C3CC3)on2)C[C@H]1C` [compound 251, N-((2R,4R)-1-(butylsulfonyl)-2-methylpiperidin-4-yl)-5-cyclopropylisoxazole-3-carboxamide], which IC50 is on record?
Its IC50 is 6.15 µM.

With `CCOC(=O)CS(=O)(=O)N1CC[C@@H](NC(=O)c2cc(C3CC3)on2)C[C@H]1C` [compound 252, ethyl 2-(((2R,4R)-4-(5-cyclopropylisoxazole-3-carboxamido)-2-methylpiperidin-1-yl)sulfonyl)acetate] as the molecule, how does the IC50 read?
Its IC50 is over 10 µM.

Which IC50 does the source give for `C[C@@H]1C[C@H](NC(=O)c2cc(C3CC3)on2)CCN1S(=O)(=O)c1ccc(Cl)nc1` [compound 253, N-((2R,4R)-1-((6-chloropyridin-3-yl)sulfonyl)-2-methylpiperidin-4-yl)-5-cyclopropylisoxazole-3-carboxamide] here?
The IC50 was over 10 µM.

`C[C@@H]1C[C@H](NC(=O)c2cc(C3CC3)on2)CCN1S(=O)(=O)N1CCCC1` [compound 254, 5-cyclopropyl-N-((2R,4R)-2-methyl-1-(pyrrolidin-1-ylsulfonyl)piperidin-4-yl)isoxazole-3-carboxamide] was tested. Which IC50 did it give?
Its IC50 is 4.14 µM.

With `C[C@@H]1C[C@H](NC(=O)c2cc(C3CC3)on2)CCN1S(=O)(=O)N1CCN(C)CC1` [compound 255, 5-cyclopropyl-N-((2R,4R)-2-methyl-1-((4-methylpiperazin-1-yl)sulfonyl)piperidin-4-yl)isoxazole-3-carboxamide] as the molecule, how does the IC50 read?
The IC50 was 1.2 µM.

For `COC(=O)CCS(=O)(=O)N1CC[C@@H](NC(=O)c2cc(C3CC3)on2)C[C@H]1C` [compound 256, methyl 3-(((2R,4R)-4-(5-cyclopropylisoxazole-3-carboxamido)-2-methylpiperidin-1-yl)sulfonyl)propanoate], which IC50 is on record?
Its IC50 is over 10 µM.

Which IC50 does the source give for `COCCS(=O)(=O)N1CC[C@@H](NC(=O)c2cc(C3CC3)on2)C[C@H]1C` [compound 257, 5-cyclopropyl-N-((2R,4R)-1-((2-methoxyethyl)sulfonyl)-2-methylpiperidin-4-yl)isoxazole-3-carboxamide] here?
The IC50 was 9.29 µM.

Which IC50 does the source give for `C[C@@H]1C[C@H](NC(=O)c2cc(C3CC3)on2)CCN1S(=O)(=O)CCC(F)(F)F` [compound 258, 5-cyclopropyl-N-((2R,4R)-2-methyl-1-((3,3,3-trifluoropropyl)sulfonyl)piperidin-4-yl)isoxazole-3-carboxamide] here?
Its IC50 is 8.37 µM.

With `COCCCS(=O)(=O)N1CC[C@@H](NC(=O)c2cc(C3CC3)on2)C[C@H]1C` [compound 259, 5-cyclopropyl-N-((2R,4R)-1-((3-methoxypropyl)sulfonyl)-2-methylpiperidin-4-yl)isoxazole-3-carboxamide] as the molecule, how does the IC50 read?
The IC50 was over 10 µM.

`CCS(=O)(=O)N1CC[C@H](NC(=O)c2cc(C3CC3)on2)C[C@@H]1C` [compound 260, 5-cyclopropyl-N-((2S,4S)-1-(ethylsulfonyl)-2-methylpiperidin-4-yl)isoxazole-3-carboxamide] was tested. Which IC50 did it give?
Its IC50 is 2.45 µM.

How did the IC50 turn out when `CCS(=O)(=O)N1CC[C@@H](NC(=O)c2cc(C3CC3)on2)C[C@H]1C` [compound 261, 5-cyclopropyl-N-((2R,4R)-1-(ethylsulfonyl)-2-methylpiperidin-4-yl)isoxazole-3-carboxamide] was run?
Its IC50 is over 10 µM.

`CCS(=O)(=O)N1CC[C@@H](NC(=O)c2cc(C3CC3)on2)C[C@@H]1C` [compound 262, 5-cyclopropyl-N-((2S,4R)-1-(ethylsulfonyl)-2-methylpiperidin-4-yl)isoxazole-3-carboxamide] was tested. Which IC50 did it give?
Its IC50 is over 10 µM.

For `C[C@@H]1CC(NC(=O)c2cc(C3CC3)on2)CCN1C(=O)CC1CCCC(N)C1` (stereo partly drawn) [compound 264, N-((2R)-1-(2-(3-aminocyclohexyl)acetyl)-2-methylpiperidin-4-yl)-5-cyclopropylisoxazole-3-carboxamide], which IC50 is on record?
The IC50 was 0.41 µM.

Which IC50 does the source give for `C[C@H]1C[C@H](NC(=O)c2cc(C3CC3)on2)CCN1C(=O)CC1(CN)CCCCC1` [compound 266, N-((2S,4R)-1-(2-(1-(aminomethyl)cyclohexyl)acetyl)-2-methylpiperidin-4-yl)-5-cyclopropylisoxazole-3-carboxamide] here?
Its IC50 is over 10 µM.

`C[C@@H]1C[C@@H](NC(=O)c2cc(C3CC3)on2)CCN1C(=O)CC1(CN)CCCCC1` [compound 267, N-((2R,4S)-1-(2-(1-(aminomethyl)cyclohexyl)acetyl)-2-methylpiperidin-4-yl)-5-cyclopropylisoxazole-3-carboxamide] was tested. Which IC50 did it give?
Its IC50 is 8.52 µM.

`C[C@@H]1C[C@@H](NC(=O)c2cc(C3CC3)on2)CCN1C(=O)CC(C)(C)CN` [compound 268, N-((2R,4S)-1-(4-amino-3,3-dimethylbutanoyl)-2-methylpiperidin-4-yl)-5-cyclopropylisoxazole-3-carboxamide] was tested. Which IC50 did it give?
Its IC50 is 3.15 µM.

`C[C@H]1C[C@H](NC(=O)c2cc(C3CC3)on2)CCN1C(=O)CCCCN` [compound 273, N-((2S,4R)-1-(5-aminopentanoyl)-2-methylpiperidin-4-yl)-5-cyclopropylisoxazole-3-carboxamide] was tested. Which IC50 did it give?
Its IC50 is 7.83 µM.

With `C[C@H]1C[C@@H](NC(=O)c2cc(C3CC3)on2)CCN1S(=O)(=O)C1CC1` [compound 276, 5-cyclopropyl-N-((2S,4S)-1-(cyclopropylsulfonyl)-2-methylpiperidin-4-yl)isoxazole-3-carboxamide] as the molecule, how does the IC50 read?
Its IC50 is 3.63 µM.

How did the IC50 turn out when `C[C@H]1C[C@@H](NC(=O)c2cc(C3CC3)on2)CCN1S(=O)(=O)N1CCCC1` [compound 277, 5-cyclopropyl-N-((2S,4S)-2-methyl-1-(pyrrolidin-1-ylsulfonyl)piperidin-4-yl)isoxazole-3-carboxamide] was run?
Its IC50 is 0.654 µM.

For `CNS(=O)(=O)N1CC[C@H](NC(=O)c2cc(C3CC3)on2)C[C@@H]1C` [compound 278, 5-cyclopropyl-N-((2S,4S)-2-methyl-1-(N-methylsulfamoyl)piperidin-4-yl)isoxazole-3-carboxamide], which IC50 is on record?
The IC50 was 2.89 µM.
